Assay results published in patent publication US20160136284A1, “GLIOMA TREATMENT” (priority 2012, published 2016).

Test: Coinfusion of carboplatin and gadolinium-DTPA into pig corona radiata (T1 MRI, LA-ICP-MS)
Format: in vivo
Conditions: carboplatin 0.03 mg/ml coinfused with 0.3% gadolinium-DTPA, CED
Experimental: Carboplatin infusions were undertaken into male Large White Landrace pigs weighing 45 kg using a cannula system developed in-house. Pig anaesthesia, head immobilisation and brain imaging were achieved as we have previously described White et al (2010). Infusions of 120 μl 0.03 mg/ml carboplatin mixed with 0.3% (6 μmol/l) Gadolinium-DTPA (Magnevist: Bayer Healthcare, Germany), were undertaken bilaterally into the corona radiata using a cannula composed of a length of fused silica (outer diameter 220 μm, inner diameter 150 μm) bonded to a glass Hamilton syringe. Except for the distal 3 mm, this fused silica tube was supported along its length by a series of zirconia tubes to ensure that it could be accurately inserted to target. Infusions were performed using the following regime: 0.5 μl/min for 5 min, 1 μl/min for 5 min, 2.5 μl/min for 5 min and then 5 μl/min for 20 min. This regime was employed in an attempt to minimise the occurrence of a sudden surge in pressure at the catheter tip due to elasticity in the infusion tubing. 120 μl was infused as this is the largest volume that we have previously infused into pig white matter without leakage into the ventricular system. Following infusion completion, the cannula was left in place for 10 min prior to being withdrawn slowly by hand. CSF leakage from the burr hole and cannula track was sealed with Cerebond prior to wound closure. […]

## Gadolinium-DTPA
  distribution in pig corona radiata (LA-ICP-MS): distributed over a larger volume of brain than carboplatin
